{"source": "patent US20120316143A1", "about": "“Ophthalmic composition” (priority 2009, published 2012)", "origin": "cited, not measured here", "key": {"[1]": {"test_system": "normal subjects; patients with ocular hypertension"}, "[2]": {"test_system": "rabbits made ocularly hypertensive with dexamethasone"}, "[3]": {"test_system": "patients", "settings": "applied topically as a 1% suspension"}}, "note": "Where two headings read alike, the source gives them in different places.", "data": [{"smiles": "CC1(C)[C@@H](OC(=O)CCC(=O)O)CC[C@]2(C)[C@H]3C(=O)C=C4[C@@H]5C[C@@](C)(C(=O)O)CC[C@]5(C)CC[C@@]4(C)[C@]3(C)CC[C@@H]12", "note": "[Carbenoxolone]", "values": [{"measurement": "decrease in intraocular pressure", "setting": "[1]; normal subjects", "result": 20, "unit": "%"}, {"measurement": "decrease in intraocular pressure", "setting": "[1]; patients with ocular hypertension", "result": 20, "unit": "%"}]}, {"smiles": "C[C@]12CC[C@@H](O)C[C@H]1CC[C@@H]1[C@@H]2[C@@H](O)C[C@@]2(C)[C@H]1CC[C@]2(O)C(=O)CO", "note": "[Tetrahydrocortisol, tetrahydrocortisol]", "values": [{"measurement": "effect on intraocular pressure (IOP)", "setting": "[2]", "result": "lower intraocular pressure"}]}, {"smiles": "C[C@]12CC[C@@H](O)C[C@H]1CC[C@@H]1[C@@H]2[C@@H](O)C[C@@]2(C)[C@H]1CC[C@]2(O)C(=O)CO", "note": "[3-α-5-β-Tetrahydrocortisol]", "values": [{"measurement": "effect on intraocular pressure", "setting": "[3]", "result": "lower intraocular pressure"}]}]}
